Source: patent publication US11208405B2, “Pyrrole derivatives as PLK1 inhibitors” (SENTINEL ONCOLOGY LIMITED, priority 2017, dated 2021)
Where a name gives a salt, the structure may show the parent alone.

What was measured:
HCT116 cells = assay: Effects on HCT116 colorectal cancer cell viability (cell titre blue, 72 hours); assay type: cell-based; conditions: Homo sapiens, HCT-116, HCT116 cell line
Protocol: Assay to Measure the Effects of Compounds of the Invention on HCT116 Colorectal Cancer Cell Viability
The following protocol was used to measure the effects of compounds of the invention on HCT116 cell viability.
1. HCT116 cells were grown in RPM11640 media supplemented with Glutamax and 10% FBS in a 37° C./5% CO2 incubator.
2. Growing culture of HCT116 cells were trypsinised, counted and diluted to give 10,000 cells/mL in an appropriate volume, allowing at least 6 mL of cells per plate.
3. 200 μL of PBS were added to all the outer wells of a flat-bottomed (8×12) 96-well TC plate. 100 μL of media were added only to wells in column 11 of the plates (these wells provided a blank for the cell titre blue assay). Two compounds were assayed on each plate.
4. 100 ul of 10,000 cells/mL HCT116s were plated in rows B-G of each plate.
5. The cells were incubated (37° C. 5% CO2) for 24 hours before treating with compounds.
6. An 8 mM compound stock in DMSO was prepared for all compounds to be tested. 2.5 μL of the compound stock was added to 1000 μL growth medium in a 96-well deep well block and serial dilutions were prepared across the plate by transferring 500 μL into wells containing 500 μL growth medium+0.25% DMSO to give eight concentrations of compound (this ensured a constant amount of DMSO at all concentrations of compound). When making up growth medium+DMSO, an amount of 5 ml was allowed per compound to be diluted.
7. 3 rows of cells were treated with 100 μL/well from each row on the dilution plate so that each cell plate is treated with a single compound. This gave a final volume in all wells of 200 μL and a titration of compound from a final concentration of 10 uM down to 78 nM.
8. The cells were incubated (37° C. 5% CO2) for 72 hours.
9. 5 ul cell titre blue reagent (Promega) were added to all wells except the edge wells (which contain PBS only) and incubated (37° C. 5% CO2) for 2.5-3 hours.
10. Fluorescence was measured on a suitable plate reader using a 530-570 nm filter set for excitation and a 580-620 nm filter set for fluorescence emission.
11. Data were analysed using an appropriate graphing package (such as GraphPad Prism). Data were expressed as the concentration of compound causing a 50% inhibition of cell viability or GI50.

HeLa cells = assay: Arresting cells in mitosis (Mitotic Index, phosphorylated Histone H3 immunofluorescence); assay type: cell-based; conditions: HeLa cell line, 24 hours; for EC50: Homo sapiens, Mitotic Index, read-out: EC50
Protocol: Assay to Measure the Effects of Compounds of the Invention on Arresting Cells in Mitosis
Inhibiting the ability of PLK1 to bind to its phosphopeptide binding partners through the PBD causes cells to arrest in mitosis. Experimentally, this is measured by assessing the number of cells which are in mitosis at a certain time after treatment with a PLK1-PBD inhibitor by immunofluorescent detection of phosphorylated Histone H3 (pH3), a marker which is only present in mitotic cells. PLK1-PBD inhibitors are expected to cause a dose-dependent increase in pH3-positive cells, which is reported as Mitotic Index (MI)—the percentage of cells which, at a given time, are positive for this mitotic mark. The following protocol has been used to measure MI: • 1. Plate HeLa cells at 10,000/well in 100 μL/well in clear flat-bottom 96-well plates and incubate overnight. • 2. Immediately prior to treatment, dilute compounds in medium in a 96-well round-bottom plate. Make up all compounds at 5 times final desired concentration on cells, and serially dilute 1:2 across the plate ensuring that there is 100 μL of each concentration (start with 200 μl of the top concentration on the left of the plate). […] Treat cells by adding 25 μL from the compound dilution plate to triplicate wells. • 4. Incubate cells with compound for 24 hours. • 5. After 24 hours, fixation and staining is carried out as follows: • 6. Dilute 37% formaldehyde in PBS to give a 12.95% solution by adding 3.5 mL formaldehyde to 6.5 mL of PBS. • 7. Add 50 μL of formaldehyde fixation solution directly to each well of cells (which already contain 125 μL medium). • 8. Incubate at room temp for 10 minutes. • 9. Remove fixative and add 100 μL/well PBS+0.1% Triton X-100 for 10 minutes. • 10. Aspirate and add 100 μL/well PBS+1% BSA. • 11. Aspirate and add 50 μL/well of primary antibody (anti-PH3 [1:2000]/anti-MPM2 [1:1000]) diluted in PBS+1% BSA. Incubate for 1 hour. • 12. Wash×2 with 100 μL/well PBS+1% BSA. • 13. Add 50 μL/well of secondary antibody plus Hoechst stain (anti-rabbit Alexafluor 488 [1:500]; anti-mouse Alexafluor 546 [1:500]+Hoechst 33342 [1:2500 final concentration=4 μg/mL])diluted in PBS+1% BSA. Incubate for 1 hour. • 14. Wash twice with 100 μL/well PBS+1% BSA. • 15. Aspirate and add 100 μL/well PBS. Plates can be stored at 4° C. in PBS for several weeks before scanning on the Cellomics Arrayscan. […] Scan on Cellomics using Target Activation Bioapplication. • 17. MI data emerging from the Cellomic Bioapplication can be used to plot MI versus compound concentration, and subsequently used to generate an EC50 value for each compound using an appropriate graphing/curve-fitting package such as GraphPad Prism.

Row | Structure (SMILES) | GI50 (HCT116 cells) [µM] | EC50 (HeLa cells) [µM] | % mitotic cells (HeLa cells) [%]
1 | CN(C)CCN(C)C(=O)c1cccc(-c2ccc(-c3ccc(Br)cc3)n2-c2ccccc2C(F)(F)F)c1 [Example 12, hydrochloride] | 0.29 | 0.79 | 62
2 | CN(C)Cc1cccc(-c2ccc(-c3ccc(Br)cc3)n2-c2ccccc2C(F)(F)F)c1 [Example 7, 1-[3-[5-(4-bromophenyl)-1-[2-(trifluoromethyl)phenyl]pyrrol-2-yl]phenyl]-N,N-dimethyl-methanamine Hydrochloride] | 1.06 | 2.2 | 75
3 | CN1CCC(CNC(=O)c2cccc(-c3ccc(-c4ccc(Br)cc4)n3-c3ccccc3C(F)(F)F)c2)CC1 [Example 10] | 0.34 | 0.78 | 62
4 | CN1CCC(NC(=O)c2cccc(-c3ccc(-c4ccc(Br)cc4)n3-c3ccccc3C(F)(F)F)c2)C1 (stereo not shown) [Example 14, hydrochloride] | – | 0.83 | 68
5 | CN(C)CCNCc1cccc(-c2ccc(-c3ccc(Br)cc3)n2-c2ccccc2C(F)(F)F)c1 [Example 18, hydrochloride] | – | 1.64 | 67
6 | COc1ccc(C(=O)NCCN(C)C)cc1-c1ccc(-c2ccc(Br)cc2)n1-c1ccccc1 [Example 20, hydrochloride] | 3.94 | – | –
7 | CN1CCC(NC(=O)c2cccc(-c3ccc(-c4ccc(Br)cc4)n3-c3ccccc3C(F)(F)F)c2)CC1 [Example 11, hydrochloride] | 0.36 | 0.8 | 54
8 | O=C(Cc1ccc(-c2ccc(-c3ccc(Cl)cc3)n2-c2ccccc2C(F)(F)F)cc1)NCCN1CCOCC1 [Example 100, hydrochloride] | 0.13 | – | –
9 | CN(C)[C@@H]1CCN(C(=O)c2cccc(-c3ccc(-c4ccc(Br)cc4)n3-c3ccccc3C(F)(F)F)c2)C1 [Example 54, hydrochloride] | 1.38 | – | –
10 | CN(C)CCCOc1cccc(-c2ccc(-c3ccc(Br)cc3)n2-c2ccccc2C(F)(F)F)c1 [Example 17, 3-[3-[5-(4-Bromophenyl)-1-[2-(trifluoromethyl)phenyl]pyrrol-2-yl]phenoxy]-N,N-dimethyl-propan-1-amine Hydrochloride] | – | 1.45 | 65
11 | CN1CCN(Cc2ccc(-c3ccc(-c4ccc(Br)cc4)n3-c3ccccc3C(F)(F)F)cc2)CC1 [Example 48, hydrochloride] | 0.41 | – | –
12 | O=C(Cc1ccc(-c2ccc(-c3ccc(Cl)cc3)n2-c2ccccc2C(F)(F)F)cc1)NCCN1CCNCC1 [Example 101, hydrochloride] | 0.06 | – | –
13 | CN(C)CCCNC(=O)c1ccc(-c2ccc(-c3ccccc3)n2-c2cnccc2C(F)(F)F)c(Cl)c1 [Example 68, hydrochloride] | 0.11 | – | –
14 | CN1CC[C@@H](NC(=O)c2cccc(-c3ccc(-c4ccc(Br)cc4)n3-c3ccccc3C(F)(F)F)c2)C1 [Example 13, hydrochloride] | 0.66 | 0.75 | 71
15 | O=C(NCCN1CCOCC1)c1ccc(-c2ccc(-c3ccc(Cl)cc3)n2-c2cnccc2C(F)(F)F)cc1 [Example 81, hydrochloride] | 0.08 | – | –
16 | COc1cc(-c2ccc(-c3ccc(Br)cc3)n2-c2ccccc2C(F)(F)F)ccc1C(=O)NCCCN(C)C [Example 31, hydrochloride] | 1.45 | – | –
17 | CN(C)CCNC(=O)c1cccc(-c2ccc(-c3ccccc3)n2-c2ccccc2C(F)(F)F)c1 [Example 3, hydrochloride] | – | 1.58 | 65
18 | O=C(c1cccc(-c2ccc(-c3ccc(Br)cc3)n2-c2ccccc2C(F)(F)F)c1)N1CCC(Cc2cccnc2)CC1 [Example 102, hydrochloride] | 0.38 | – | –
19 | CN(C)CCNC(=O)c1ccc(-c2ccc(-c3ccccc3)n2-c2cnccc2C(F)(F)F)c(Cl)c1 [Example 67, hydrochloride] | 0.07 | – | –
20 | CN(C)CCNC(=O)c1cccc(-c2ccc(-c3ccc(Br)cc3)n2-c2cnccc2C(F)(F)F)c1 [Example 6] | 0.2 | 0.66 | 86

Further lines, with some results ahead:

Row | GI50 (HCT116 cells) [µM] | EC50 (HeLa cells) [µM] | Structure (SMILES) | % mitotic cells (HeLa cells) [%]
21 | – | 0.55 | CN(C)CCNC(=O)c1cccc(-c2ccc(-c3ccc(Br)cc3)n2-c2ccc(Cl)cc2C(F)(F)F)c1 [Example 4, hydrochloride] | 65
22 | 0.1 | – | CN(C)CCCNC(=O)c1ccc(-n2ncc(-c3ccc(Cl)cc3)c2-c2ccccc2C(F)(F)F)cc1 [Example 105, hydrochloride] | –
23 | 0.26 | – | CN(C)CCNC(=O)c1ccc(-c2[nH]nc(-c3ccc(Cl)cc3)c2-c2ccccc2C(F)(F)F)cc1 [Example 93, 4-[3-(4-chlorophenyl)-4-[2-(trifluoromethyl)phenyl]-1H-pyrazol-5-yl]-N-[2-(dimethylamino)ethyl] Benzamide Hydrochloride] | –
24 | 0.05 | – | CN(C)CCNC(=O)c1ccc(-c2ccc(-c3ccc(Cl)cc3)n2-c2cnccc2C(F)(F)F)cc1 [Example 49, hydrochloride] | –
25 | 1.7 | – | CC(C)Cc1ccc(C(F)(F)F)c(-n2c(-c3ccc(Cl)cc3)ccc2-c2ccc(C(=O)NCCCN(C)C)cc2)c1 [Example 64, hydrochloride] | –
26 | 0.24 | – | CN(C)CCCNC(=O)c1ccc(-c2ccc(-c3ccc(Cl)cn3)n2-c2ccccc2C(F)(F)F)cc1 [Example 76, hydrochloride] | –
27 | 0.04 | – | CN(C)CCNC(=O)c1ccc(-c2ccc(-c3ccc(Cl)cc3)n2-c2ccccc2C(F)(F)F)s1 [Example 99, hydrochloride] | –
28 | 2.75 | > 10 | CC(C)c1ccc(-c2ccc(-c3cccc(C(=O)NCCN(C)C)c3)n2-c2ccccc2C(F)(F)F)cc1 [Example 22, hydrochloride] | 5
29 | 2.13 | – | CN(C)CCCNC(=O)c1ccc(-c2ccc(-c3ccc(Cl)cc3)n2-c2cccc(C(F)(F)F)c2)cc1 [Example 78, hydrochloride] | –
30 | 0.16 | – | CN(C)CCNC(=O)C(C)(C)c1ccc(-c2ccc(-c3ccc(Cl)cc3)n2-c2ccccc2C(F)(F)F)cc1 [Example 107, hydrochloride] | –
31 | 0.05 | – | NCCNC(=O)c1ccc(-c2ccc(-c3ccc(Cl)cc3)n2-c2ccccc2C(F)(F)F)cc1 [Example 94, hydrochloride] | –
32 | 0.08 | – | CN(C)CCNC(=O)c1ccc(-n2ncc(-c3ccc(F)cc3)c2-c2ccccc2C(F)(F)F)cc1 [Example 106, hydrochloride] | –
33 | 0.15 | – | CN(C)CCNC(=O)c1ccc(-c2ccc(-c3ccc(Cl)cn3)n2-c2ccccc2C(F)(F)F)cc1 [Example 75, hydrochloride] | –
